From patent publication US20210038585A1 (Tesaro, Inc., priority 2017, published 2021)
Several values for one entry are separate records, joined by “and”; a condition that tells them apart may be missing. Equal values may be shown once. Read-outs that look alike come from different tables or passages of the source.

Legend:
[1] = shear cell tests using a FT-4 powder rheometer; type: physicochemical; details: niraparib drug substance; for BD (bulk density): shear cell test
Protocol: As used herein, “flow function” or FF is a parameter commonly used to rank powder's flowability and is determined using a shear test. The data produced in the shear test represents the relationship between shear stress and normal stress, which can be plotted to define the powder's Yield Locus. Fitting Mohr stress circles to the yield locus identifies the Major Principle Stress (MPS) and Unconfined Yield Strength (UYS). Flow function is the ratio of Major Principle Stress (MPS) to the Unconfined Yield Strength (UYS):
Shear testing can be used measure powder shear properties which involves the stress limit required to initiate a powder flow. The shear testing uses a segmented rotational shear cell head and a 10 ml powder sample in the borosilicate test vessel. Powder is filled into the vessel. The shear cell head is simultaneously rotated and moved axially under the powder sample at pre-determined normal stresses as the shear stresses are measured to calculate several parameters, including the flow function (FF). Usually, powders of low cohesion have higher FF and that represents better flow properties. The permeability test can measure the ease of air transmission through a bulk powder which can be related to the powder's flowability. For example, a permeability testing can use a vented piston with an aeration base and 10 mL powder sample in the borosilicated test vessel.
Samples of powder compositions were prepared to evaluate the powder compositions disclosed herein. The following tests/measurements were made using a FT-4 powder rheometer from Freeman technology.
The cohesion (kPa), Unconfined Yield Strength (UYS) (kPa), Maj or Principle Stress (MPS) (kPa), flow function (FF) (MPS/UYS), Angle of internal friction (AIF), and bulk density (BD) (g/cm^3) were determined by carrying out shear cell tests using a FT-4 powder rheometer and the results can be seen in the tables below: […]

[2] = wall friction test, FT-4 powder rheometer, stainless steel discs; type: physicochemical; details: niraparib batches, Ra 0.05; for BD (bulk density): wall friction test
Excerpt: A Wall Friction test can be used to provide a measurement of the sliding resistance between a powder and the surface of process equipment, such as an encapsulator or blender or hopper. This can be important for understanding discharge behavior from hoppers, continuity of flow in transfer chutes and tablet ejection forces. It is also useful when investigating whether a powder will adhere to the wall of process equipment and various other surfaces, such as the inside of sachets, capsules and other packaging material. The measurement principle is very similar to the shear cell test, but rather than shearing powder against powder, in this test a coupon of material representing the process equipment wall is sheared against the powder in question. The FT4 Wall Friction accessory allows for a range of coupons to be investigated, and bespoke surfaces can be manufactured if required. Data is typically represented as a plot of shear stress against normal stress, allowing the determination of Wall Friction Angle (phi). The greater the wall friction angle, the higher the resistance between the powder and wall coupon.
The measurement principle is very similar to the shear cell test, but rather than shearing powder against powder, in this test a coupon of material representing the process equipment wall is sheared against the powder in question. The FT4 Wall Friction accessory allows for a range of coupons to be investigated. Wall Friction is typically represented as a plot of shear stress against normal stress, allowing the determination of Wall Friction Angle (phi). The greater the wall friction angle, the higher the resistance between the powder and wall coupon.
A wall friction test method was developed to assess the interaction between the drug substance and stainless steel. […]
The head continues to move downwards until the required normal stress is established. […] The torque required to maintain this rotational is measured which enables a “steady-state” shear stress to be calculated. […] A series of shear stress values is measured for a range of target applied stresses. […]

[3] = test system: tumor models
[4] = in vivo; details: 50 mg/kg
[5] = test system: intracellular PARP activity; details: read-out: inhibited PARP activity in a whole cell assay, EC50; cited from earlier work
[6] = test system: intracellular PARP activity
[7] = test system: cancer cells with mutant BRCA-1 and BRCA-2; details: read-out: inhibited proliferation, CC50; cited from earlier work
[8] = crystalline solid drug substance
[9] = drug substance
Protocol: These batches were divided into sub-lots at various time intervals and each sub-lot was analyzed for content uniformity.

SMILES	AIF (Angle of internal friction) [1]	Cohesion [1]	FF, flow function (MPS/UYS) [1]	MPS (Major Principle Stress) [1]	UYS (Unconfined Yield Strength) [1]	BD (bulk density) [1]	BD (bulk density) [2]	further results
Cc1ccc(S(=O)(=O)O)cc1.NC(=O)c1cccc2cn(-c3ccc(C4CCCNC4)cc3)nc12.O (stereo not drawn) [Non Milled, Annealed A]	36.54 ° and 35.80 °	1.10 kPa and 1.02 kPa	4.27 and 4.66	18.64 kPa and 18.50 kPa	4.36 kPa and 3.97 kPa	0.38 g/mL and 0.37 g/mL	0.37 g/mL and 0.38 g/mL and 0.39 g/mL	
NC(=O)c1cccc2cn(-c3ccc([C@@H]4CCCNC4)cc3)nc12 [Niraparib, 2-{4-[(3S)-piperidin-3-yl]phenyl}-2H-indazole-7-carboxamide]								tumor regression ([3]; 50 mg/kg, daily dosing): tumor regression; tumor regression ([3]; dosing switched from 75 mg/kg olaparib to 50 mg/kg niraparib): tumor regression was achieved; concentration at 6 h [4]: ~4570 ng/mL; EC50 [5]: 4 nM; intracellular PARP activity IC90 ([6]; mass concentration equivalent): 0.016 µg/mL; IC50 ([6]; read-out: intracellular PARP activity IC50): 4 nM; IC90 ([6]; read-out: intracellular PARP activity IC90): 50 nM; CC50 [7]: 10 to 100 nM
Cc1ccc(S(=O)(=O)O)cc1.NC(=O)c1cccc2cn(-c3ccc(C4CCCNC4)cc3)nc12.O (stereo not drawn) [Non Milled, Annealed D]	30.49 ° and 31.30 °	1.14 kPa and 1.06 kPa	4.12 and 4.32	16.44 kPa and 16.24 kPa	3.99 kPa and 3.76 kPa	0.44 g/mL and 0.46 g/mL	0.44 g/mL and 0.46 g/mL and 0.45 g/mL	WFA (Wall friction angle) [2]: 27.29 ° and 31.10 ° and 30.98 °
O=C(c1cc(Cc2n[nH]c(=O)c3ccccc23)ccc1F)N1CCN(C(=O)C2CC2)CC1 [olaparib]								tumor regression ([3]; same model, dose of 75 mg/kg): did not result in tumor regression
Cc1ccc(S(=O)(=O)O)cc1.NC(=O)c1cccc2cn(-c3ccc([C@@H]4CCCNC4)cc3)nc12 [Niraparib tosylate monohydrate, 2-{4-[(3S)-piperidin-3-yl]phenyl}-2H-indazole 7-carboxamide 4-methylbenzenesulfonate hydrate (1:1:1)]								hygroscopicity [8]: non-hygroscopic; bulk density [9]: 0.34-0.45 g/cc; tapped density [9]: 0.53-0.66 g/cc
